Experimental data as given in patent US4103011A, “Novel penicillin compounds and process for preparation thereof” (priority 1976, dated 1978).
Structures can show the parent of a compound that is named as a salt. Where two headings read alike, the source gives them in different places.

Columns and labels:
[1] = system: Staphylococcus aureus No. 50774; experiment: In vivo efficacy against systemic infection; parameters: species or system male mice (ddY); settings: NO.50774, in Mus musculus, 336 h, sc, twice, about 5 minutes and 6 hours after infection, read-out: ED50 (median effective dose)
Experimental: (§1) The contents in the vials (No. A and No. C) prepared in Example 17 were each dissolved in deionized water, and injections having various concentrations were prepared.
(§2) Compounds A, B, F, G, H and M were dissolved in deionized water. Compounds C, D, E and J were dissolved in an aqueous solution of sodium carbonate (pH 8-9) to prepare injections of various concentrations.
(§3) Each of the injections was administered to mice under the conditions described below, and the median effective doses (ED50) obtained are shown in Table II.
(§4) Mice: male mice (ddY) weighting about 20g
Staphylococcus aureus No. 50774;
Intravenous infection with 50 to 100
LD50 (about 5 × 10^8cells/mouse) of a
bacterial suspension in saline.
(§5) twice, about 5 minutes and 6 hours after
Staphylococcus aureus No. 50774 14 days
The numerals in the table show ED50 (mg/kg). ED50 values were
(§6) calculated in accordance with the Behrens-Kaerber method [Arch. Exp. Path

Escherichia coli P-5101 [2] = experiment: In vivo efficacy against systemic infection; parameters: species or system male mice (ddY); settings: P5101, in Mus musculus, 168 h, twice, about 5 minutes and 6 hours after infection, read-out: ED50 (median effective dose)
Experimental: as §1
(§7) Compounds A, B, F, G, H and M were dissolved in deionized water.
as §4
(§8) Intraperitoneal infection with 50 to
(§9) of a bacterial suspension in tryptosoy
as §5, §6

[3] = system: bacteria (systemic infection); experiment: In vivo efficacy against systemic infection, overall conclusions; parameters: species or system male mice (ddY); settings: Table II
Experimental: as §1, §2, §3

in vivo = settings: mouse
[4] = system: Pseudomonas aeruginosa No. 12; experiment: In vivo efficacy against systemic infection; parameters: species or system male mice (ddY); settings: for ED50: NO.12, in Mus musculus
Experimental: as §1, §7, §4
Pseudomonas aeruginosa No. 12;
as §8, §9, §5
Pseudomonas aeruginosa No. 12
as §6

[5] = system: Serratia mercescens IFO 3736; experiment: In vitro antibacterial activity (MIC); assay type: cell-based
Excerpt: (§10) In vitro antibacterial activity against 20 strains of bacteria
(§11) The numerals in the table show minimum inhibitory concentrations (MIC)

[6] = system: Shigella flexneri 4a P-330; experiment: In vitro antibacterial activity (MIC); assay type: cell-based; settings: 4AP330, read-out: minimum inhibitory concentration (MIC)
Excerpt: as §10, §11

[7] = system: Salmonella typhimurium S-9; experiment: In vitro antibacterial activity (MIC); assay type: cell-based; settings: Salmonella enterica; Salmonella typhimurium S-9; read-out: minimum inhibitory concentration (MIC)
Excerpt: as §10, §11

[8] = system: Corynebacterium pyogenes C-21; experiment: In vitro antibacterial activity (MIC); assay type: cell-based; settings: Rhodococcus (subgen. Prescottella) equi, C21; Corynebacterium pyogenes C-21; read-out: minimum inhibitory concentration (MIC)
Excerpt: as §10, §11

Escherichia coli P-140a = experiment: In vitro antibacterial activity (MIC); assay type: cell-based
Excerpt: as §10, §11

Escherichia coli P-5101 [9] = experiment: In vitro antibacterial activity (MIC); assay type: cell-based
Excerpt: as §10, §11

Proteus morganii Kono = experiment: In vitro antibacterial activity (MIC); assay type: cell-based; settings: Morganella morganii; Proteus morganii Kono; read-out: minimum inhibitory concentration (MIC)
Excerpt: as §10, §11

[10] = system: Enterobacter cloacae P-2540; experiment: In vitro antibacterial activity (MIC); assay type: cell-based
Excerpt: as §10, §11

[11] = system: Klebsiella pneumoniae No. 13; experiment: In vitro antibacterial activity (MIC); assay type: cell-based; settings: Klebsiella pneumoniae No. 13; read-out: minimum inhibitory concentration (MIC)
Excerpt: as §10, §11

[12] = system: Streptococcus pyogenes 65A; experiment: In vitro antibacterial activity (MIC); assay type: cell-based; settings: Streptococcus pyogenes 65A; read-out: minimum inhibitory concentration (MIC)
Excerpt: as §10, §11

[13] = system: Streptococcus faecalis P-2473; experiment: In vitro antibacterial activity (MIC); assay type: cell-based; settings: Enterococcus faecalis
Excerpt: as §10, §11

[14] = system: Pseudomonas aeruginosa No.12; experiment: In vitro antibacterial activity (MIC); assay type: cell-based; settings: Pseudomonas aeruginosa, NO.12, read-out: minimum inhibitory concentration (MIC)
Excerpt: as §10, §11

[15] = system: Escherichia coli NIHJ JC-2; experiment: In vitro antibacterial activity (MIC); assay type: cell-based; settings: Escherichia coli, NIHJJC2, read-out: minimum inhibitory concentration (MIC)
Excerpt: as §10, §11

[16] = system: Staphylococcus aureus 209P JC-1; experiment: In vitro antibacterial activity (MIC); assay type: cell-based; settings: Staphylococcus aureus 209P JC-1; read-out: minimum inhibitory concentration (MIC)
Excerpt: as §10, §11

[17] = system: Pseudomonas aeruginosa Tsuchijima; experiment: In vitro antibacterial activity (MIC); assay type: cell-based; settings: read-out: minimum inhibitory concentration (MIC)
Excerpt: as §10, §11

[18] = system: Salmonella enteritidis No. 1891; experiment: In vitro antibacterial activity (MIC); assay type: cell-based; settings: Salmonella enterica; Salmonella enteritidis No. 1891; read-out: minimum inhibitory concentration (MIC)
Excerpt: as §10, §11

Proteus mirabilis P-2381 = experiment: In vitro antibacterial activity (MIC); assay type: cell-based; settings: P2381; Proteus mirabilis P-2381; read-out: minimum inhibitory concentration (MIC)
Excerpt: as §10, §11

Proteus rettgeri P-2503 = experiment: In vitro antibacterial activity (MIC); assay type: cell-based; settings: Providencia rettgeri
Excerpt: as §10, §11

[19] = system: Staphylococcus aureus No. 50774; experiment: In vitro antibacterial activity (MIC); assay type: cell-based; settings: Staphylococcus aureus No. 50774; read-out: minimum inhibitory concentration (MIC)
Excerpt: as §10, §11

Shigella flexneri 2a = experiment: In vitro antibacterial activity (MIC); assay type: cell-based; settings: read-out: minimum inhibitory concentration (MIC)
Excerpt: as §10, §11

[20] = iv, twice, about 5 minutes and 6 hours after infection, read-out: ED50 (median effective dose)
[21] = sc, twice, about 5 minutes and 6 hours after infection, read-out: ED50 (median effective dose)

Structure (SMILES)	ED50 [1] [mg/kg]	ED50 (Escherichia coli P-5101 [2]; iv) [mg/kg]	ED50 (Escherichia coli P-5101 [2]; sc) [mg/kg]	LD50 at 168 h (in vivo; iv) [mg/kg]	LD50 at 168 h (in vivo; sc) [mg/kg]	selectivity ratio (in vivo; sc)	ED50 [4, 20] [mg/kg]	ED50 [4, 21] [mg/kg]	MIC [6] [µg/mL]	MIC [7] [µg/mL]	MIC [8] [µg/mL]	minimum inhibitory concentration (MIC) (Escherichia coli P-140a) [µg/mL]	MIC (Proteus morganii Kono) [µg/mL]	MIC [11] [µg/mL]	MIC [12] [µg/mL]	MIC [14] [µg/mL]	MIC [15] [µg/mL]	MIC [16] [µg/mL]	MIC [18] [µg/mL]	MIC (Proteus mirabilis P-2381) [µg/mL]	also measured
CC(=O)N1CCN(c2ncc3c(=O)c(C(=O)N[C@@H](C(=O)N[C@@H]4C(=O)N5[C@@H]4SC(C)(C)[C@@H]5C(=O)O)c4ccc(O)cc4)c[nH]c3n2)CC1 [Compound 2, D-α-[5,8-Dihydro-2-(4-acetyl-1-piperazinyl)-5-oxopyrido[2,3-d]pyrimidine-6-carboxamido]-p-hydroxybenzylpenicillin sodium salt]	3.3	3.9	4.6	4520	> 6000	> 1200	6	5	3.13	0.78	0.78	12.5	6.25	12.5	0.006	3.13	3.13	1.56	0.78	6.25	chemotherapeutic index relative to compounds B, D, E, F, G and J (times as high) (mice; Pseudomonas aeruginosa): 3 to 100 times; LD50 relative to compounds A to G (times as high) (mice; mice): 2 to 10 times; antibacterial activity in vivo (in words) [3]: excellent antibacterial activity in vivo; selectivity ratio (in vivo; iv): 753; ED50 ([4]; parenteral administration, compounds 1 and 2 together, read-out: ED50): 2 to 6 mg/kg; antibacterial activity compared with compounds J and H (in words) ([4]; parenteral administration): far superior antibacterial activity; antibacterial activity relative to compounds B and C (times as high) ([4]; parenteral administration): 3 to 25 times; antibacterial activity relative to compounds D and E (times as high) ([4]; parenteral administration): 6 to 20 times; MIC ([5]; IFO3736, Serratia mercescens IFO 3736, read-out: minimum inhibitory concentration (MIC)): 6.25 µg/mL; MIC (Escherichia coli P-5101 [9]; P5101, Escherichia coli P-5101, read-out: minimum inhibitory concentration (MIC)): 0.78 µg/mL; MIC ([10]; P2540, Enterobacter cloacae P-2540, read-out: minimum inhibitory concentration (MIC)): 6.25 µg/mL; MIC ([13]; P2473, Streptococcus faecalis P-2473, read-out: minimum inhibitory concentration (MIC)): 6.25 µg/mL; MIC ([17]; Pseudomonas aeruginosa Tsuchijima): 0.78 µg/mL; MIC (Proteus rettgeri P-2503; P2503, Proteus rettgeri P-2503, read-out: minimum inhibitory concentration (MIC)): 25 µg/mL; MIC [19]: 1.56 µg/mL; MIC (Shigella flexneri 2a): 3.13 µg/mL
CCN1CCN(C(=O)N[C@@H](C(=O)N[C@@H]2C(=O)N3[C@@H]2SC(C)(C)[C@@H]3C(=O)O)c2ccccc2)C(=O)C1=O [Compound H, D-α-(4-Ethyl-2,3-dioxopiperazine-1-carboxamido)-benzylpenicillin sodium salt]	8.8	43.3	26.3	> 4000	> 6000	> 42	> 100	141	3.13	0.39	6.25	12.5	0.78	6.25	0.025	3.13	3.13	0.39	0.39	0.78	LD50 compared with compounds 1 and 2 (in words) (mice; mice): almost the same; antibacterial activity in vivo as fraction of that of the penicillin compounds of this invention [3]: one-twentieth to one-seventieth; MIC ([5]; Serratia, IFO3736, read-out: minimum inhibitory concentration (MIC)): 0.78 µg/mL; MIC (Escherichia coli P-5101 [9]; Escherichia coli, P5101, read-out: minimum inhibitory concentration (MIC)): 1.56 µg/mL; MIC ([10]; Enterobacter cloacae, P2540, read-out: minimum inhibitory concentration (MIC)): 3.13 µg/mL; MIC ([13]; P2473, read-out: minimum inhibitory concentration (MIC)): 3.13 µg/mL; MIC ([17]; Pseudomonas aeruginosa): 1.56 µg/mL; MIC (Proteus rettgeri P-2503; P2503, read-out: minimum inhibitory concentration (MIC)): 1.56 µg/mL; MIC [19]: 0.78 µg/mL; MIC (Shigella flexneri 2a): 1.56 µg/mL
